Assay results reported in US4251543A, “2-(p-Prenylphenyl)propionic acid” (priority 1978, dated 1981).

Columns and labels:
rat paw edema = assay: Anti-inflammatory activity, rat paw edema (carrageenin); format: in vivo, rat (male Wistar); details: p.o., three hours after injection of carrageenin
Procedure: (§1) Anti-inflammatory activity was evaluated by the method of rat paw edema(Winter et al., J. Pharmacol. Exp. Ther., 141, 369(1963)). Six male Wistar strain rats were used in each group and a volume of the each paw was measured three hours after injection of carrageenin.

acetic acid writhing = assay: Analgesic activity, acetic acid writhing test; format: in vivo, mouse (male ddY); details: p.o.
Excerpt: Male ddY strain mice in groups of ten each were used for the evaluation of analgesic activity by acetic acid writhing test(Koster et al., Federation Proc., 18, 412(1959)).

gastric lesions = assay: Gastric lesions after oral administration; format: in vivo, rat (male Wistar); details: 100 + 200 mg/Kg, p.o.; for lesion index (sum of areas damaged): mean ± S.E.
Procedure: Anti-inflammatory activity was evaluated by the method of rat paw edema(Winter et al., J. Pharmacol. Exp. Ther., 141, 369(1963)). Six male Wistar strain rats were used in each group and a volume of the each paw was measured three hours after injection of carrageenin. […] The gastric lesions induced were expressed as incidence(number of rats with gastric lesions/number of the rats) and lesion index(sum of areas damaged). The results are shown in Table 3, wherein the values of lesion index and liver weight are mean ± S.E.

liver weight = assay: Liver weight per 100 g of the test rat; format: in vivo, rat (male Wistar); details: 100 + 200 mg/Kg, p.o., mean ± S.E.
Procedure: as §1
Immediately after the completion of the test described in Experiment 1, the test compound was orally administered to the test rats in a dose twice the dose administered in Experiment 1, and fasting was continued for 18 hours prior to autopsy and evaluation of gastric lesions and liver weight per 100 g of the test rat. The gastric lesions induced were expressed as incidence(number of rats with gastric lesions/number of the rats) and lesion index(sum of areas damaged). The results are shown in Table 3, wherein the values of lesion index and liver weight are mean ± S.E.

[1] = Changes of body weight, repeated oral administration; format: in vivo, rat (male Wister); details: for body weight before treatment: before treatment (baseline); for body weight before treatment / body weight after 5 days / body weight after 10 days: mean ± S.E.; for body weight after 5 days / body weight after 10 days: orally
Procedure: (§2) The test compound was suspended in 0.4% CMC solution in an appropriate concentration, and was administered orally once a day at the definite dose (50, 100 or 200 mg/Kg) in each 10 male Wister rats. Additional 10 control rats were received an equivalent volume of the vehicle. […] In those tables, the values of body weight, red blood cell and hemoglobin are mean ± S.E.

[2] = test system: red blood cell and hemoglobin; assay: Hematological findings after 10 days administration; format: in vivo, rat (male Wister); details: for hemoglobin / red blood cell: p.o., day one after 10 days administration, mean ± S.E.; for effect on hemoglobin count (in words) / effect on red blood cell count (in words): 50, 100 or 200 mg/Kg orally once a day, 10 days
Procedure: as §2

CC(C)=CCc1ccc(C(C)C(=O)O)cc1 (stereo not shown) [TA-060, 2-[p-(3-methyl-2-butenyl)phenyl]propionic acid]
inhibition (%) (rat paw edema; 50 mg/Kg): 35.9%
inhibition (%) (rat paw edema; 100 mg/Kg): 46.5%
inhibition (%) (rat paw edema; 200 mg/Kg): 52.1%
inhibition (%) (acetic acid writhing; 50 mg/Kg): 37.3%
inhibition (%) (acetic acid writhing; 100 mg/Kg): 40.0%
inhibition (%) (acetic acid writhing; 200 mg/Kg): 62.7%
gastric lesion incidence (number of rats with gastric lesions/number of the rats) (gastric lesions; fasting 18 hours prior to autopsy): 0/12
lesion index (sum of areas damaged) (gastric lesions): 0 mm^2
liver weight (liver weight): 3.56 ± 0.04 g
body weight before treatment ([1]; 50 mg/Kg/day group): 211.5 ± 3.6 gram
body weight after 5 days ([1]; 50 mg/Kg/day): 224.6 ± 3.6 gram
body weight after 10 days ([1]; 50 mg/Kg/day): 239.7 ± 3.2 gram
body weight before treatment ([1]; 100 mg/Kg/day group): 210.0 ± 2.5 gram
body weight after 5 days ([1]; 100 mg/Kg/day): 226.4 ± 2.8 gram
body weight after 10 days ([1]; 100 mg/Kg/day): 238.5 ± 2.3 gram
body weight before treatment ([1]; 200 mg/Kg/day group): 211.7 ± 3.1 gram
body weight after 10 days ([1]; 200 mg/Kg/day, **p <0.001): 238.3 ± 5.1 gram
body weight after 5 days ([1]; 200 mg/Kg/day, *p <0.01): 221.9 ± 4.6 gram
effect on body weight gain (in words) ([1]; 50, 100 or 200 mg/Kg orally once a day, 10 days): no effect
hemoglobin ([2]; 50 mg/Kg): 15.2 ± 0.1 g/dL
red blood cell ([2]; 50 mg/Kg, *p <0.05): 864.2 ± 20.2 × 10^4 /mm^3
hemoglobin ([2]; 100 mg/Kg, ***p <0.001): 15.1 ± 0.2 g/dL
red blood cell ([2]; 100 mg/Kg, **p <0.01): 860.8 ± 9.5 × 10^4 /mm^3
hemoglobin ([2]; 200 mg/Kg, ***p <0.001): 15.0 ± 0.2 g/dL
red blood cell ([2]; 200 mg/Kg, **p <0.01): 857.9 ± 15.2 × 10^4 /mm^3
effect on hemoglobin count (in words) [2]: no effect
effect on red blood cell count (in words) [2]: no effect

CCCCC1C(=O)N(c2ccccc2)N(c2ccccc2)C1=O [phenylbutazone, reference compound]
lesion index (sum of areas damaged) (gastric lesions): 4.59 ± 1.35 mm^2
liver weight (liver weight): 4.23 ± 0.09 g

CC(C)Cc1ccc(C(C)C(=O)O)cc1 (stereo not shown) [ibuprofen, reference compound]
inhibition (%) (rat paw edema; 50 mg/Kg): 37.9%
inhibition (%) (rat paw edema; 100 mg/Kg): 49.5%
inhibition (%) (rat paw edema; 200 mg/Kg): 52.9%
inhibition (%) (acetic acid writhing; 50 mg/Kg): 18.6%
inhibition (%) (acetic acid writhing; 100 mg/Kg): 37.5%
inhibition (%) (acetic acid writhing; 200 mg/Kg): 53.8%
effect on hemoglobin count (in words) [2]: significant decrease
effect on red blood cell count (in words) [2]: significant decrease
